Data: patent US20250009819A1, “NOVEL PROBIOTICS AND USE THEREOF” (PBLBIOLAB CO., LTD., priority 2021, published 2025)

Experiments:
[1] = Antioxidant activity (DPPH, in vitro); type: biochemical; conditions: DPPH 0.2 mM; lactic acid bacteria suspension 1×10^8 CFU/ml; 37° C. 20 min
Experimental: DPPH (2,2-Diphenyl-1-picrylhydrazyl) was dissolved in ethanol to a concentration of 0.2 mM to prepare DPPH solution. Lactic acid bacteria suspension (1×10^8 CFU/ml) or vitamin C solution (1 g/ml) was added to 0.1 ml of the above DPPH solution and incubated at 37° C. for 20 min. The culture was centrifuged at 3000 rpm for 5 min to obtain a supernatant. The absorbance of the supernatant was then measured at 517 nm and the antioxidant activity of the lactic acid bacteria was calculated.

TNF-α = TNF-α expression in LPS-treated macrophages (ELISA); type: cell-based, C57BL/6 mice; conditions: macrophages treated with lactic acid bacteria and LPS for 24 hours
Experimental: (§1) C57BL/6 mice (male, 6 weeks old, 20-23 g) were subjected to an intraperitoneal injection of 2 ml of sterile 4% thioglycolate solution, and after 96 hours, the mice were anesthetized and injected with 8 ml of RPMI 1640 medium through the peritoneal cavity. Then, after 5-10 minutes, the RPMI medium (macrophages) in the mouse peritoneal cavity was extracted, centrifuged at 1000 g for 10 minutes, and washed again with RPMI 1640 medium twice. Macrophages were seeded in 24-well plates at a count of 0.5×10^6 in each well, and treated with lactic acid bacteria and LPS, an inflammatory response-inducing substance, for 24 hours. TNF-α and IL-10 cytokine expression amount in the culture supernatant was then measured by ELISA Kit.

IL-10 = IL-10 expression in LPS-treated macrophages (ELISA); type: cell-based, C57BL/6 mice; conditions: macrophages treated with lactic acid bacteria and LPS for 24 hours
Experimental: as §1

BDNF = BDNF expression in SH-SY5Y cells; type: cell-based; conditions: LPS 200 ng/ml; lactic acid bacteria 1×10^4 CFU/ml; 24 h
Experimental: (§2) SH-SY5Y cells obtained from the Korean Cell Line Bank were cultured in DMEM medium supplemented with 10% FBS and 1% antibiotics, and dispensed at 2×10^6 cells per well in a 12-well plate. Then, LPS (200 ng/ml) was added to each well along with lactic acid bacteria (1×10^4 CFU/ml) and incubated for 24 h. The cells and supernatants were collected, sonicated and centrifuged, and the amount of BDNF in the supernatant was measured by ELISA kit.

Neuropeptide Y (NPY) = Neuropeptide Y (NPY) expression in PC12 phaeochromocytoma cells; type: cell-based; conditions: LPS 200 ng/ml; lactic acid bacteria 1×10^4 CFU/ml; 24 hr
Experimental: as §2, with “PC12” for “SH-SY5Y”, “1×10^6” for “2×10^6”, “hr.” for “h.”, “NPY” for “BDNF”

Clostridium difficile = Clostridium difficile proliferation in gut microbiota (PCR); type: cell-based; conditions: human feces culture; lactic acid bacteria 1×10^6 CFU/mL; anaerobic 24 hr
Experimental: Fresh human feces were suspended in anaerobic medium (GAM, Nissui Pharmaceutical Co., Ltd., Japan) and allowed to stand for 10 min. The supernatant was diluted with 10,000-fold anaerobic medium, 0.05 mL of the dilution was transplanted into 5 mL of freshly made anaerobic medium, and lactic acid bacteria (1×10^6 CFU/mL) were implanted and incubated anaerobically for 24 hr. This culture medium was divided into two, one was centrifuged (5000 rpm, 20 minutes), the precipitated DNA was isolated using the QIAamp DNA stool mini kit (Qiagen, Germany), and Clostridium difficile (primer: forward, 5′-[…]-3′ (SEQ ID NO: 4); reverse, 5′-[…]-3′ (SEQ ID NO: 5) was quantified by PCR. The reaction product was first treated at 95° C. for 30 seconds, followed by 42 cycles of 5 seconds at 95° C. and 30 seconds at 72° C. for analysis. In addition, one culture medium was sonicated, centrifuged, and filter-sterilized, and the amount of LPS in the supernatant was measured using an ELISA kit.

gut microbiota = experiment: LPS production in gut microbiota (ELISA); type: cell-based; conditions: human feces culture; lactic acid bacteria 1×10^6 CFU/mL; anaerobic 24 hr
Experimental: Fresh human feces were suspended in anaerobic medium (GAM, Nissui Pharmaceutical Co., Ltd., Japan) and allowed to stand for 10 min. The supernatant was diluted with 10,000-fold anaerobic medium, 0.05 mL of the dilution was transplanted into 5 mL of freshly made anaerobic medium, and lactic acid bacteria (1×10^6 CFU/mL) were implanted and incubated anaerobically for 24 hr.

Substance	Antioxidant activity [1]	Macrophage Inhibition of TNF-α expression (TNF-α)	Macrophage Induction of IL-10 expression (IL-10)	SHSY5Y cell Induction of BDNF expression (BDNF)	PC12 cell Induction of NPY expression (Neuropeptide Y (NPY))	Gut microbiota Inhibition of difficile bacteria proliferation (Clostridium difficile)	Gut microbiota Inhibition of LPS production (gut microbiota)
Bifidobacterium longum NK216	++ (strongly (++; >60-90%))	− (not or less than 20% (−; <20%))	− (not or less than 20% (−; <20%))	− (not or less than 20% (−; <20%))	+ (weakly (+; >20-60%))	− (not or less than 20% (−; <20%))	++ (strongly (++; >60-90%))
Lactobacillus casei NK193	+ (weakly (+; >20-60%))	+ (weakly (+; >20-60%))	+ (weakly (+; >20-60%))	+ (weakly (+; >20-60%))	− (not or less than 20% (−; <20%))	− (not or less than 20% (−; <20%))	+ (weakly (+; >20-60%))
Lactobacillus sakei NK197	++ (strongly (++; >60-90%))	+ (weakly (+; >20-60%))	+ (weakly (+; >20-60%))	− (not or less than 20% (−; <20%))	+ (weakly (+; >20-60%))	+ (weakly (+; >20-60%))	+ (weakly (+; >20-60%))
Bifidobacterium infantis NK213	+ (weakly (+; >20-60%))	+ (weakly (+; >20-60%))	+ (weakly (+; >20-60%))	− (not or less than 20% (−; <20%))	− (not or less than 20% (−; <20%))	+ (weakly (+; >20-60%))	− (not or less than 20% (−; <20%))
Lactobacillus gasseri NK185	++ (strongly (++; >60-90%))	+ (weakly (+; >20-60%))	+ (weakly (+; >20-60%))	− (not or less than 20% (−; <20%))	+ (weakly (+; >20-60%))	+ (weakly (+; >20-60%))	− (not or less than 20% (−; <20%))
Lactobacillus rhamnosus NK211	+ (weakly (+; >20-60%))	+ (weakly (+; >20-60%))	+ (weakly (+; >20-60%))	− (not or less than 20% (−; <20%))	− (not or less than 20% (−; <20%))	+ (weakly (+; >20-60%))	− (not or less than 20% (−; <20%))
Bifidobacterium infantis NK215	++ (strongly (++; >60-90%))	+ (weakly (+; >20-60%))	+ (weakly (+; >20-60%))	− (not or less than 20% (−; <20%))	+ (weakly (+; >20-60%))	+ (weakly (+; >20-60%))	+ (weakly (+; >20-60%))
Lactobacillus gasseri NK186	+ (weakly (+; >20-60%))	+ (weakly (+; >20-60%))	+ (weakly (+; >20-60%))	− (not or less than 20% (−; <20%))	− (not or less than 20% (−; <20%))	+ (weakly (+; >20-60%))	+ (weakly (+; >20-60%))
Lactobacillus gasseri NK187	+ (weakly (+; >20-60%))	+ (weakly (+; >20-60%))	− (not or less than 20% (−; <20%))	+ (weakly (+; >20-60%))	− (not or less than 20% (−; <20%))	+ (weakly (+; >20-60%))	+ (weakly (+; >20-60%))
Bifidobacterium pseudocatenulatum NK230	+ (weakly (+; >20-60%))	− (not or less than 20% (−; <20%))	− (not or less than 20% (−; <20%))	+ (weakly (+; >20-60%))	+ (weakly (+; >20-60%))	+ (weakly (+; >20-60%))	+ (weakly (+; >20-60%))
Bifidobacterium bifidum NK224	+ (weakly (+; >20-60%))	− (not or less than 20% (−; <20%))	− (not or less than 20% (−; <20%))	− (not or less than 20% (−; <20%))	+ (weakly (+; >20-60%))	+ (weakly (+; >20-60%))	+ (weakly (+; >20-60%))
Lactobacillus reuteri NK200	+ (weakly (+; >20-60%))	− (not or less than 20% (−; <20%))	− (not or less than 20% (−; <20%))	+ (weakly (+; >20-60%))	+ (weakly (+; >20-60%))	+ (weakly (+; >20-60%))	+ (weakly (+; >20-60%))
Lactobacillus casei NK194	++ (strongly (++; >60-90%))	− (not or less than 20% (−; <20%))	+ (weakly (+; >20-60%))	+ (weakly (+; >20-60%))	+ (weakly (+; >20-60%))	+ (weakly (+; >20-60%))	+ (weakly (+; >20-60%))
Lactobacillus mucosae NK205	+ (weakly (+; >20-60%))	− (not or less than 20% (−; <20%))	− (not or less than 20% (−; <20%))	− (not or less than 20% (−; <20%))	+ (weakly (+; >20-60%))	− (not or less than 20% (−; <20%))	− (not or less than 20% (−; <20%))
Bifidobacterium adolescentis NK221	+ (weakly (+; >20-60%))	− (not or less than 20% (−; <20%))	− (not or less than 20% (−; <20%))	− (not or less than 20% (−; <20%))	+ (weakly (+; >20-60%))	+ (weakly (+; >20-60%))	+ (weakly (+; >20-60%))
